Measured values reported in US12433925B2, “Composition for photodynamic reaction containing extract of Ligularia fischeri as an effective ingredient, antimicrobial, antifungal and sterilization composition including the same, and sterilization method using the composition for photodynamic reaction” (KOREA INSTITUTE OF SCIENCE AND TECHNOLOGY, priority 2020, dated 2025).

Key:
[1] = tested on: Staphylococcus aureus KCTC 3881; assay: Mouse splinted excisional wound model, wound size by caliper; type: in vivo, BALB/c mouse; settings: no red light
Procedure: (§1) A 7-week-old male BALB/c mouse (BALB-cAnNCr1jOri, Orientbio, Seongnam, South Korea) was housed for a week in a sterile animal room (SPF, Specific pathogen free) with a controlled air temperature of 22±2° C., a humidity of 50±10%, and the cycle of 12 hours of light and 12 hours of dark. The mice were anesthetized through an avertin intraperitoneal injection, a 5 mm wound was made therein using a biopsy patch, and a central portion of silicone drilled to an outside diameter of 15 mm and an inside diameter of 5 mm was stuck to fit the wound. Then, in the case of the experimental group, 10 μL of a physiological buffer solution (PBS) containing 10^9 CFU/mL of Staphylococcus aureus KCTC 3881 (S.A. bacterium) was inoculated into the wound site, which was then clogged with Tegaderm, and the back of the mice was wrapped with a compression bandage so that the wound site was not in contact with the outside.
Two days after the infection with Staphylococcus aureus, in the case of the group treated with Ligularia fischeri ethanol according to Preparation Example 1(1), the wound was treated with 10 μL of a Ligularia fischeri ethanol extract (20 μg/mL), and in the case of the red light treated group, the wound was treated with red light LED (wavelength: 660 nm, 120 W/m^2) for 15 minutes. In addition, in the case of the Ligularia fischeri ethanol extract according to Preparation Example 1(1) and the red light-treated group, 10 μL of the Ligularia fischeri ethanol extract (20 μg/mL) was treated on the wound for 30 minutes and then red light (120 W/m^2) was treated for 15 minutes. […]
The wound was treated in the same manner as above, even 4, 6, and 8 days after infection with Staphylococcus aureus, and the image of the wound site was obtained on Day 2, 4, 6, and 8 after infection with Staphylococcus aureus. The width and height of the wound site were measured using a caliper and the product obtained by multiplying the width with the height was used to calculate the wound size in mm^2. […]

[2] = tested on: Staphylococcus aureus KCTC 3881; assay: Mouse splinted excisional wound model, wound closure by H&E histology (distance between epidermis tips); type: in vivo, BALB/c mouse; settings: no red light
Procedure: as §1
Two days after the infection with Staphylococcus aureus, in the case of the group treated with Ligularia fischeri ethanol according to Preparation Example 1(1), the wound was treated with 10 μL of a Ligularia fischeri ethanol extract (20 μg/mL), and in the case of the red light treated group, the wound was treated with red light LED (wavelength: 660 nm, 120 W/m^2) for 15 minutes. […]
A wound size measurement is a measurement of apparently appearing wound scab and requires the task of histologically confirming whether the wound has been closed by an epidermis actually newly created inside the scab. To this end, the distance between the wound epidermis was measured. […]
Example 1(1)+red light), and the ampicillin-treated group (S.A.bacteria+Ampicillin) on Day 8 after the wound is infected with Staphylococcus aureus (S.A.bacteria). […] At this time, statistical significance between Control (PBS) and S. A. bacteria-treated group was expressed as ^##p<0.001. Statistical significance with S. A. bacteria-treated group-treated group was expressed as *p<0.05 or […]. […]

## CC1(C)S[C@@H]2[C@H](NC(=O)[C@H](N)c3ccccc3)C(=O)N2[C@H]1C(=O)O [ampicillin, Ampicillin]
[1]; Day 8, infected wound
  wound size compared to the group treated with S.A. bacteria: no significant difference in wound size
[1]; Day 8, wound infected with S.A. bacteria, topical 10 μL
  wound size, % of the initial wound size: 53.7%
[1]; PBS (no S.A. infection)
  change in wound size, uninfected (PBS) wound: the change in wound size did not occur over time
[2]; Day 8, PBS (uninfected) wound
  wound closure (epidermis formation, H&E): completely closed
[2]; Day 8, infected wound
  distance between epithelial tips (wound maintained): 16.6%
  histological wound size compared to the S.A. bacteria-treated group: reduced
